Reference: patent US5075287A, “Muramyl peptide derivatives and immunoregulating compositions containing them” (priority 1989, dated 1991)
Read-outs that look alike come from different tables or passages of the source.

Assays:
[1] = test system: L-1210 mouse leukemia cells; assay: Activation of macrophages (growth inhibition of tumor cells by intraperitoneal macrophages of treated mice, MTT assay); assay type: cell-based; conditions: macrophages taken 3 days after i.p. 0.2 ml of 500 μg/ml, macrophage:L-1210 20:1, 72 hours
Protocol: A compound of the present invention was dissolved in lipidmicrosphere to obtain a solution in a concentration of 500μg/ml, and 0.2 ml of such solution was intraperitoneally administered to each mouse in one group consisting of seven female CDF1 mice. Intraperitoneal macrophages obtained three days after the administration and L-1210 mouse leukemia cells were mixed in the ratio of cell numbers of 20:1, respectively. Two hundred μl of the mixture was placed in each well of one sheet of 96 well microtiter plate. After 72 hours, the increase of the cell number in each well was determined by a MTT assay method. The ratio of the cell number for the mixture of the L-1210 cells and the macrophage relative to the cell number for the L-1210 cells only(growth inhibitory ratio) was determined, and the results are shown in Table 3.

[2] = test system: hepatitis B virus surface antigen (HBs); assay: Hepatitis-vaccine enhancing activity (adjuvant activity): anti-HBs IgG in mouse serum by ELISA; assay type: in vivo, female CDF1 mice; conditions: Experiment 1, 5000-fold dilution
Protocol: A compound of the present invention was dissolved in lipidmicrosphere (1 mg/ml). On the other hand, a solution of hepatitis B virus surface antigen (HBs) in physiological saline was prepared (50 μg/ml). The above solutions in equal amounts were mixed to prepare a test solution. A control solution was prepared by the exclusion of the compound of the present invention from said test solution. A mixture of a suspension of aluminium hydroxide gel in physiological saline (1 mg/ml) and said hepatitis vaccine preparation in equal amounts was prepared as another control solution. The test solution (0.2 ml) was intraperitoneally administered to each mouse in one group consisting of seven female CDF1 mice.
Blood samples were collected from the fundus ocluli vein of each mouse every week after the administration and then centrifuged to obtain serums. Three weeks after the administration, 0.2 ml of the test liquid was intraperitoneally administered again to each mouse for secondary stimulation. Then blood collecting was conducted every week to obtain serums after the application of the secondary stimulation, in the same manner as that described above.
The amount of the IgG antibodies against the hepatitis B virus surface antigens (HBs) in the serums thus obtained was determined with an ELISA method.

[3] = test system: influenza HA vaccine (B/Nagasaki/1/87 strain); assay type: in vivo, female CDF1 mice; conditions: Experiment 1, 5000-fold dilution
[4] = 1 W after i.p. administration, compound in lipidmicrosphere + HBs
[5] = 4 W (after secondary stimulation at 3 weeks)
[6] = 5 W (after secondary stimulation at 3 weeks)
[7] = 1 W after i.p. administration, compound in lipidmicrosphere + HA vaccine

SMILES | Growth inhibitory ratio of L-1210 mouse leukemia cells [1] | Anti-HBs IgG antibody level in serum (ELISA absorbance at 415 nm) [2, 4] | Anti-HBs IgG antibody level in serum (ELISA absorbance at 415 nm) ([2]; 2 W) | Anti-HBs IgG antibody level in serum (ELISA absorbance at 415 nm) ([2]; 3 W) | Anti-HBs IgG antibody level in serum (ELISA absorbance at 415 nm) [2, 5] | Anti-HBs IgG antibody level in serum (ELISA absorbance at 415 nm) [2, 6] | Anti HA serum antigen value (average value ± S.D.) [3, 7] | Anti HA serum antigen value (average value ± S.D.) ([3]; 2 W) | Anti HA serum antigen value (average value ± S.D.) ([3]; 3 W) | Anti HA serum antigen value (average value ± S.D.) [3, 5] | Anti HA serum antigen value (average value ± S.D.) [3, 6]
CCCCCCCCCCCCCCC(CCCCCCCCCCCCCC)C(=O)O[C@H]1O[C@H](COC(=O)CCCCCCCCCCCCC)[C@@H](O)[C@H](O[C@H](C)C(=O)N[C@@H](C)C(=O)N[C@H](CCC(=O)OC)C(N)=O)[C@H]1NC(C)=O [Example 6, N-[2-0-{2-Acetamido-2,3-dideoxy-6-0-tetradecanoyl-1-0-(2-tetradecylhexadecanoyl)-α-D-glucopyranos-3-yl}-D-lactoyl]-L-alanyl-D-isoglutamine methylester] | 63.0% | 0 O.D 415 nm | 0.020 ± 0.002 O.D 415 nm | 0.069 ± 0.001 O.D 415 nm | 0.477 ± 0.005 O.D 415 nm | 0.529 ± 0.005 O.D 415 nm | 0.001 ± 0.001 O.D 415 nm | 0.013 ± 0.002 O.D 415 nm | 0.259 ± 0.004 O.D 415 nm | 1.025 ± 0.013 O.D 415 nm | 1.159 ± 0.013 O.D 415 nm
CCCCCCCCCCCCCCCCCC(=O)OC[C@H]1O[C@H](OC(=O)C[C@@H](CCCCCCCCCCC)OC(=O)CCCCCCCCCCCCC)[C@H](NC(C)=O)[C@@H](O[C@H](C)C(=O)N[C@@H](C)C(=O)N[C@H](CCC(=O)OC)C(N)=O)[C@@H]1O [Example 13, N-[2-0-{2-Acetamido-2,3-dideoxy-6-0-octadecanoyl-1-0-((3R)-3-tetradecanoyloxytetradecanoyl)-α-D-glucopyranos-3-yl}-D-lactoyl]-L-alanyl-D-isoglutamine methylester] | 39.7% | 0 O.D 415 nm | 0.081 ± 0.003 O.D 415 nm | 0.126 ± 0.003 O.D 415 nm | 0.635 ± 0.011 O.D 415 nm | 0.742 ± 0.016 O.D 415 nm | 0 O.D 415 nm | 0.088 ± 0.004 O.D 415 nm | 0.140 ± 0.001 O.D 415 nm | 0.868 ± 0.010 O.D 415 nm | 0.824 ± 0.002 O.D 415 nm
CCCCCCCCCCCCCC(=O)OC[C@H]1O[C@@H](SC(=O)C[C@@H](CCCCCCCCCCC)OC(=O)CCCCCCCCCCCCC)[C@H](NC(C)=O)[C@@H](O[C@H](C)C(=O)N[C@@H](C)C(=O)N[C@H](CCC(=O)OC)C(N)=O)[C@@H]1O [Example 15] | 87.5% | 0 O.D 415 nm | 0.085 ± 0.002 O.D 415 nm | 0.129 ± 0.001 O.D 415 nm | 0.788 ± 0.008 O.D 415 nm | 0.905 ± 0.020 O.D 415 nm | 0.007 ± 0.000 O.D 415 nm | 0.119 ± 0.005 O.D 415 nm | 0.218 ± 0.006 O.D 415 nm | 1.249 ± 0.013 O.D 415 nm | 1.262 ± 0.017 O.D 415 nm
CCCCCCCCCCCCCC(=O)O[C@H](CCCCCCCCCCC)CC(=O)O[C@H]1O[C@H](CO)[C@@H](O)[C@H](O[C@H](C)C(=O)N[C@@H](C)C(=O)N[C@H](CCC(=O)OC)C(N)=O)[C@H]1NC(C)=O [Example 3, N-[2-0-{2-Acetamido-2,3-dideoxy-1-0-((3R)-3-tetradecanoyloxytetradecanoyl)-α-D-glucopyranos-3-yl}-D-lactoyl]-L-alanyl-D-isoglutamine methylester] | 42.6% | 0 O.D 415 nm | 0.027 ± 0.001 O.D 415 nm | 0.064 ± 0.003 O.D 415 nm | 0.631 ± 0.006 O.D 415 nm | 0.692 ± 0.009 O.D 415 nm | 0.009 ± 0.000 O.D 415 nm | 0.182 ± 0.003 O.D 415 nm | 0.292 ± 0.004 O.D 415 nm | 0.122 ± 0.020 O.D 415 nm | 1.140 ± 0.013 O.D 415 nm
